Data published in patent publication US8470803B2, “Boron-containing small molecules” (Anacor Pharmaceuticals, Inc., priority 2008, dated 2013).

What was measured:
TNF-α = test: Cytokine assay: TNF-α release, LPS-induced PBMC; format: cell-based; details: human PBMC, 1 μg/mL LPS, supernatant at 24 hours
Description: (§1) Frozen human peripheral blood mononucleocytes (PBMC) were thawed and centrifuged. Cryopreservation media was aspirated off of the cell pellet, and the cells were resuspended in fresh culture media (CM) comprising RPMI 1640 and 10% FBS in 96 well plates. Test article was dissolved in DMSO to form a 10 mM sample (DMSO, 100%). The 10 mM samples were diluted to 100 μM in CM (DMSO, 1%), then further diluted to 10, 1, 0.1, 0.01 μM in 200 μL of CM (n=3). Inducer (1 μg/mL) LPS for TNF-α or 20 ug/mL PHA for IFNγ, IL-2, IL-4, IL-5 and IL-10. IL-23 was induced with 100 ng/ml IFN-g+[…], using THP-1 cells. Vehicle (1% DMSO) was used as a control for this experiment. Vehicle without inducer was used as a negative control. Cells were incubated at 37° C., 5% CO2. Supernatants were extracted at 24 hours (for TNF-α, IL-2 and IFNγ) and 48 hours (for IL-4, IL-5, IL-10 and IL-23), and stored at −20° C. Supernatants were thawed and assayed for cytokine expression using the fluorochrome-labeled cytokine-specific beads and a BD FACSArray™. IL-23 was assayed using a commercial ELISA kit (R&D Systems).

IL-2 = test: Cytokine assay: IL-2 release, PHA-induced PBMC; format: cell-based; details: human PBMC, 20 ug/mL PHA, 24 hours
Description: as §1

IL-γ = test: Cytokine assay: IFNγ (IL-γ [sic]) release, PHA-induced PBMC; format: cell-based; details: human PBMC, 20 ug/mL PHA, 24 hours
Description: as §1

IL-10 = test: Cytokine assay: IL-10 release, PHA-induced PBMC; format: cell-based; details: human PBMC, 20 ug/mL PHA, 48 hours
Description: as §1

IL-5 = test: Cytokine assay: IL-5 release, PHA-induced PBMC; format: cell-based; details: human PBMC, 20 ug/mL PHA, 48 hours
Description: as §1

[1] = system: T1, PDE4 partially purified from human U-937 myeloid leukemia cells; test: PDE4 assay ([3H]cAMP hydrolysis); format: biochemical; details: PDE4 from U-937 cells, 1 mM cAMP, pH 7.5, 20 minutes at 25° C.
T1 construct: PDE4 partially purified from human U-937 myeloid leukemia cells was used
Description: PDE4 partially purified from human U-937 myeloid leukemia cells was used. Test article and/or vehicle was incubated with 0.2 mg enzyme and 1 mM cAMP containing 0.01 mM [3H]cAMP in Tris buffer pH 7.5 for 20 minutes at 25° C. The reaction was terminated by boiling for 2 minutes and the resulting AMP is converted to adenosine by addition of 10 mg/ml snake venom nucleotidase and further incubation at 37° C. for 10 minutes. Unhydrolyzed cAMP is bound to AG1-X2 resin, and remaining [3H]Adenosine in the aqueous phase is quantitated by scintillation counting.

IL-4 = test: Cytokine assay: IL-4 release, PHA-induced PBMC; format: cell-based; details: human PBMC, 20 ug/mL PHA, 48 hours
Description: as §1

IL-23 = test: Cytokine assay: IL-23 release, IFN-g + LPS induced THP-1 cells; format: cell-based; details: Homo sapiens, 100 ng/ml IFN-g + 1 mg/ml LPS, 48 hours, ELISA
Description: as §1

K-ATP channel = K-ATP channel (SUR) binding; cited from earlier work

| SMILES | IC50 (TNF-α) [µM] | IC50 (IL-2) [µM] | IC50 (IL-γ) [µM] | IC50 (IL-10) [µM] | IC50 (IL-5) [µM] | IC50 [1] [µM] | IC50 (IL-4) [µM] | IC50 (IL-23) [µM] | pKi (K-ATP channel) |
| --- | --- | --- | --- | --- | --- | --- | --- | --- | --- |
| CC1=NS(=O)(=O)c2cc(Cl)ccc2N1 [diazoxide] |  |  |  |  |  |  |  |  | 3.8 |
| CC(C)(C)OC(=O)N(c1ccc(C#N)cc1)c1ccc2c(c1)COB2O [C1, 5-[N-tert-Butoxycarbonyl-(4-cyanophenylamino)]-1,3-dihydro-1-hydroxybenzoxaborole] | 1.1 | 0.96 | 0.62 | 5.59 | 2.42 | 2.75 | > 10 |  |  |

Continued, in another order:

| IC50 (TNF-α) [µM] | IC50 (IL-2) [µM] | IC50 (IL-γ) [µM] | IC50 (IL-10) [µM] | IC50 (IL-5) [µM] | IC50 [1] [µM] | IC50 (IL-4) [µM] | IC50 (IL-23) [µM] | SMILES | pKi (K-ATP channel) |
| --- | --- | --- | --- | --- | --- | --- | --- | --- | --- |
| 1.3 | 0.88 | 2 | 3.1 | 3.5 | 0.387 | > 10 |  | CN(c1ccc(C#N)cc1)c1ccc2c(c1)COB2O [C3, 5-[N-(4-Cyanophenyl)-N-methylamino]-1,3-dihydro-1-hydroxybenzoxaborole] |  |
| 1.08 | 0.13 | 1.51 | > 10 | 6.83 | 0.414 | > 10 | 7.35 | N#Cc1ccc(Nc2ccc3c(c2)COB3O)cc1 [C2, 5-(4-Cyanophenylamino)-1,3-dihydro-1-hydroxybenzoxaborole] |  |
| 0.36 | 0.22 | 0.37 | 6 | 0.4 | 0.18 | 33 | 5.77 | COc1nc(N(C(=O)OC(C)(C)C)c2ccc3c(c2)COB3O)ccc1C#N [C4, tert-Butyl 5-cyano-6-methoxypyridin-2-yl(1-hydroxy-1,3-dihydrobenzo[c][1,2]oxaborol-5-yl)carbamate] |  |
| 0.26 | 0.21 | 0.3 | 3.7 | 0.7 | 0.34 | 23 | 2.74 | COc1nc(Nc2ccc3c(c2)COB3O)ccc1C#N [C5, 6-(1-hydroxy-1,3-dihydrobenzo[c][1,2]oxaborol-5-ylamino)-2-methoxynicotinonitrile] |  |
